{"source": "patent US20080286315A1", "about": "“Methionine Enkephalin as an Adjuvant for Vaccine Immunizations” (Penta Biotech, Inc., priority 2007, published 2008)", "format_in_all_cases": "cell-based, IRM-2 mice", "key": {"immature dendritic cells": {"tested_on": "immature dendritic cells", "experiment": "Dendritic cell density and proliferation with different concentrations of MEK (cell counting / MTT assay)", "conditions": "for Cell Density: 9 days culture with IL-4 and GM-CSF; for Increase Percent: control = 100.0", "procedure": "(§1) Immature dendritic cells were isolated from spleens of IRM-2 mice with lymphocyte separation solution. The method used was adapted from a method of isolating lymphocytes using a centrifugation technique. First, diluted defibrinated blood was layered on a solution of sodium metrizoate and Dextran or Ficoll® and centrifuged at low speeds for 30 minutes. […] Mononuclear cells (lymphocytes and monocytes) and platelets are contained in the banded plasma-lymphocyte separation medium interphase due to their density. Erythrocytes and granulocytes migrate through the gradient and form a pellet to the bottom of the tube. Lymphocytes were recovered by aspirating the plasma layer and removing the cells. After proper washing and treatment, cells were suspended in RPMI-1640 containing 10% FCS and incubated in a CO2-incubator (37° C., 5% CO2) for 2 hours before use.\n(§2) The immature dendritic cells were divided into 6 groups and were centrifuged to remove the supernatants. RPMI-1640 containing 10 ng/ml IL-4, 100 ng/ml GM-CSF, 10% FCS, and MEK at either 0 ng/ml, 7.5 ng/ml, 15 ng/ml, 30 ng/ml, 60 ng/ml or 120 ng/ml was then added to the cells. The final cell density was 2×10^5 cells/ml. Cells were returned to the CO2-incubator and the media were replaced in half volumes every other day starting on the 3rd day. Cells were allowed to grow for 9 days and thereafter cell numbers were counted with an inverted phase-contrasted microscope. The group of cells having the highest density was regarded as having the most optimum conditions in terms of concentration for cytokines. Cell density was determined using the MTT [3-(4,5-Dimethylthiazol-2-yl)-2,5-Diphenyltetrazolium Bromide] assay, using methods known in the art. MEK facilitated the growth and multiplication of dendritic cells in a concentration dependent fashion. The effects were greatest with a MEK concentration at around 60 ng/ml and then decreased thereafter as MEK concentration increased."}, "dendritic cells [1]": {"tested_on": "dendritic cells", "experiment": "Dendritic cell surface marker expression (FITC antibodies to CD11c and CD80, flow cytometry)", "conditions": "day 9", "procedure": "as §1, §2\nCells isolated and cultured as described above were processed on the 9th day with the addition of FITC labeled antibodies to CD11c and CD80. CD11c is the most specific cell surface marker for mature dendritic cells. CD80 is another marker that is expressed on mature dendritic cells. Stained cells were analyzed with a flow cell cytometer and cells expressing fluorescence markers were regarded as positive. The positive rates were analyzed and calculated using Bios Consort 30 software."}, "cultured dendritic cells": {"tested_on": "cultured dendritic cells", "experiment": "IL-12 levels in supernatants of cultured dendritic cells (IL-12 ELISA)", "conditions": "supernatant day 9", "procedure": "as §1, §2\nTo further characterize the cultured cells, cell culture supernatants were collected on the 9th day of incubation and were assayed according to the procedures defined in the IL-12 ELISA Assay Kit obtained from eBioscience, USA. IL-12 is a cytokine known to be secreted by mature dendritic cells."}, "dendritic cells [2]": {"tested_on": "dendritic cells", "experiment": "Micrographs of dendritic cells (400x)", "conditions": "60 ng/ml MEK; with IL-4 and GM-CSF", "excerpt": "FIGS. 1 and 2 show micrographs of dendritic cells magnified 400×. Cells were isolated and cultured as described above."}}, "data": [{"compound": "CSCC[C@H](NC(=O)[C@@H](Cc1ccccc1)NC(=O)CNC(=O)CNC(=O)[C@H](N)Cc1ccc(O)cc1)C(=O)O", "note": "[MEK, methionine enkephalin]", "values": [{"measurement": "Cell Density", "setting": "immature dendritic cells; MEK 7.5 ng/ml, start 2x10^5 cells/ml", "result": "2.2 ± 0.1 10^5/ml"}, {"measurement": "Increase Percent", "setting": "immature dendritic cells; MEK 7.5 ng/ml", "result": 127.1, "unit": "%"}, {"measurement": "Cell Density", "setting": "immature dendritic cells; MEK 15 ng/ml", "result": "2.5 ± 0.2 10^5/ml"}, {"measurement": "Increase Percent", "setting": "immature dendritic cells; MEK 15 ng/ml", "result": 133.3, "unit": "%"}, {"measurement": "Cell Density", "setting": "immature dendritic cells; MEK 30 ng/ml", "result": "2.9 ± 1.2 10^5/ml"}, {"measurement": "Increase Percent", "setting": "immature dendritic cells; MEK 30 ng/ml", "result": 159.2, "unit": "%"}, {"measurement": "Cell Density", "setting": "immature dendritic cells; MEK 60 ng/ml", "result": "4.8 ± 0.2 10^5/ml"}, {"measurement": "Increase Percent", "setting": "immature dendritic cells; MEK 60 ng/ml", "result": 246.5, "unit": "%"}, {"measurement": "Cell Density", "setting": "immature dendritic cells; MEK 120 ng/ml", "result": "3.1 ± 0.1 10^5/ml"}, {"measurement": "Increase Percent", "setting": "immature dendritic cells; MEK 120 ng/ml", "result": 165.5, "unit": "%"}, {"measurement": "MEK concentration with greatest effect on growth and multiplication of dendritic cells", "setting": "immature dendritic cells; tested 7.5-120 ng/ml, concentration dependent", "result": "around 60 ng/ml"}, {"measurement": "CD11C(+) %", "setting": "dendritic cells [1]; MEK 7.5 ng/ml, control 47.2", "result": 49.9, "unit": "%"}, {"measurement": "CD80(+) %", "setting": "dendritic cells [1]; MEK 7.5 ng/ml, control 50.3", "result": 51.3, "unit": "%"}, {"measurement": "CD11C(+) %", "setting": "dendritic cells [1]; MEK 15 ng/ml", "result": 51.3, "unit": "%"}, {"measurement": "CD80(+) %", "setting": "dendritic cells [1]; MEK 15 ng/ml", "result": 54.1, "unit": "%"}, {"measurement": "CD11C(+) %", "setting": "dendritic cells [1]; MEK 30 ng/ml", "result": 55.6, "unit": "%"}, {"measurement": "CD80(+) %", "setting": "dendritic cells [1]; MEK 30 ng/ml", "result": 58.7, "unit": "%"}, {"measurement": "CD11C(+) %", "setting": "dendritic cells [1]; MEK 60 ng/ml", "result": 62.7, "unit": "%"}, {"measurement": "CD80(+) %", "setting": "dendritic cells [1]; MEK 60 ng/ml", "result": 64.6, "unit": "%"}, {"measurement": "CD11C(+) %", "setting": "dendritic cells [1]; MEK 120 ng/ml", "result": 57.3, "unit": "%"}, {"measurement": "CD80(+) %", "setting": "dendritic cells [1]; MEK 120 ng/ml", "result": 63.3, "unit": "%"}, {"measurement": "IL-12 Level", "setting": "cultured dendritic cells; MEK 7.5 ng/ml, control 68", "result": "102 ± 1.1", "unit": "pg/mL"}, {"measurement": "IL-12 Level", "setting": "cultured dendritic cells; MEK 15 ng/ml", "result": "126 ± 0.4", "unit": "pg/mL"}, {"measurement": "IL-12 Level", "setting": "cultured dendritic cells; MEK 30 ng/ml", "result": "175 ± 1.6", "unit": "pg/mL"}, {"measurement": "IL-12 Level", "setting": "cultured dendritic cells; MEK 60 ng/ml", "result": "256 ± 0.3", "unit": "pg/mL"}, {"measurement": "IL-12 Level", "setting": "cultured dendritic cells; MEK 120 ng/ml", "result": "227 ± 1.9", "unit": "pg/mL"}, {"measurement": "cell density in micrographs versus cells not treated with MEK", "setting": "dendritic cells [2]", "result": "increase in cell density"}, {"measurement": "cell processes (veils or dendrites) on the dendritic cells versus cells not treated with MEK", "setting": "dendritic cells [2]", "result": "increase in cell processes"}]}]}
